Data taken from patent publication US12116388B2, “Amylin receptor agonists” (Novo Nordisk A/S, priority 2022, dated 2024).
Starred links: 1 amine or outer side, 2 acyl side, 3 side chain; linkers in the order of their positions; H or OH if unused. Residues, ends and D or L forms follow the SMILES beside them. Groups on a side chain read outwards from the residue. *: point of attachment. C18 diacid = O=C(O)CCCCCCCCCCCCCCCCC(=O)*; γGlu = O=C(O)[C@H](CCC(=O)[*:2])N[*:1]

Tests used:
[1] = target: T1, human calcitonin receptor (hCTR) (Homo sapiens, UniProt P30988); assay: Human calcitonin receptor (hCTR) in vitro potency assay, CRE-luciferase reporter in BHK cells; format: cell-based; settings: BHK hCTR/CRE-Luc cells, 3 hours incubation, assay buffer with 1% ovalbumin; read-out: hCalcR potency, EC50
T1 construct: host or cells: BHK (Baby Hamster Kidney), Hollex-1 cell line
T1 sequence (P30988 25-474): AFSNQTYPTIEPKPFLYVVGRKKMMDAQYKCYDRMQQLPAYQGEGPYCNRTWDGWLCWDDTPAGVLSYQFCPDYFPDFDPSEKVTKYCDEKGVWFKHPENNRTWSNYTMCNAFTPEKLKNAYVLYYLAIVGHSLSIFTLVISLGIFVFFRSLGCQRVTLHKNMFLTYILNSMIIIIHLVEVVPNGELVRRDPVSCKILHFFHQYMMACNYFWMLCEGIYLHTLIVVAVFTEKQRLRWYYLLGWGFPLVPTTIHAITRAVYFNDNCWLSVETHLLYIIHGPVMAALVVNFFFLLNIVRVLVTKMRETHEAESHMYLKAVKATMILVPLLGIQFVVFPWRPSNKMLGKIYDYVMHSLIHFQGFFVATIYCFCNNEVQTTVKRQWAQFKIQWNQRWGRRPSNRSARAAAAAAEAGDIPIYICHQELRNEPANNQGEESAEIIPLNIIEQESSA
From the text: (§1) Activation of hCTR leads to increased cellular concentrations of CAMP. Consequently, transcription is activated by promotors containing multiple copies of the CAMP response element (CRE). It is thus possible to measure hCTR activity using a CRE-luciferase reporter gene introduced into Baby Hamster Kidney (BHK) cells co-expressing the hCTR.
(§2) A BHK cell line was stably transfected with the human calcitonin receptor (a) and a CRE-responsive luciferase (CRE-Luc) reporter gene according to methods known to the person skilled in the art (Hollex-1 cell line, obtained from Zymogenetics described in U.S. Pat. No. 5,622,839).
(§3) Cells stocks were prepared by culturing of the stably transfected BHK hCTR/CRE-Luc cell line in growth medium consisting of DMEM (Gibco, 31966-021) supplemented with 10% FBS (Gibco, 16140-071), 1% Pen/Strep (Gibco, 15140-122), 0.5 mg/mL Geneticin (Gibco, 10131-027) and 250 nM Methotrexate (Sigma, A6770). Cells at approximately 80-90% confluence were washed once with PBS (Gibco 14190-094) and loosened from the cell flasks with Versene (Gibco, 15040-033) or TrypLE™ (Gibco, 12605-010). After centrifugation, the cell pellet was dissolved and diluted to approximately 2.5×10E6 cells/mL in Recovery™ Cell Culture Freezing Medium (Gibco, 12648-010). Cells were aliquoted and stored at −180° C. until use.
(§4) The assay buffer consisted of DMEM without phenol red (Gibco, 11880-028) supplemented with 1× GlutaMAX (Gibco, 35050-038), 10 mM HEPES (Gibco, 15630-056) and 1% (w/v) ovalbumin (Sigma, A5503).
(§5) To perform the assay, BHK hCTR/CRE-Luc cells were thawed, washed once in PBS and seeded in 40 μL growth medium in a white 384-well culture plate (PerkinElmer, 6007688) at a cell density of 4.000 cells/well on the day before the experiment. The plate was incubated over night at 37° C. in 5% CO2. On the day of the assay, cells were washed once in assay buffer. Serial dilutions (7-fold dilutions, 7 concentrations Pr. compound and one well containing only assay buffer) of comparator compounds and amylin analogues were performed in assay buffer often starting from approximately 10 nM in 96-well plates and 30 μL of each concentration added to the 384-well assay plate with cells. The assay plate was incubated for 3 hours at 37° C. in 5% CO2 after which 30 μL SteadyLite Plus (PerkinElmer, 6066759) was added to each well. The assay plate was sealed, incubated at room temperature with gentle shaking for 5 minutes followed by 30 minutes incubation without shaking while protected from light. Luminescence was detected on a luminescence plate reader e.g. a Synergy 2 (BioTek).

[2] = target: T2, human amylin receptor (hAMYR3) (Homo sapiens, UniProt O60896+P30988); assay: Human amylin receptor (hAMYR3) in vitro potency assay, CRE-luciferase reporter in BHK cells; format: cell-based; settings: BHK hAMYR3/CRE-Luc cells, 3 hours incubation, assay buffer with 1% ovalbumin
T2 construct: host or cells: BHK (Baby Hamster Kidney), Hollex-1 cell line further transfected with RAMP3
T2 sequence (O60896 24-148, one chain of several): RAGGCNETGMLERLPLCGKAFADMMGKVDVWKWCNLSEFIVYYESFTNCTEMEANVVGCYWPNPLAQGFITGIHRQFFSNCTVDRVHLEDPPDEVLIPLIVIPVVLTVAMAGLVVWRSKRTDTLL
From the text: as §1, with “hAMYR3” for “hCTR”, “cAMP.” for “CAMP.”, “hAMYR3.” for “hCTR.”
as §2, with “5,622,839). The cell line was further transfected with human receptor modifying protein 3 (RAMP3) using standard methods. This turns the human calcitonin receptor into a human amylin-3(a) receptor.” for “5,622,839).”
as §3, with “hAMYR3/CRE-Luc” for “hCTR/CRE-Luc”, “10131-027), 0.4 mg/mL Hygromycin (Invitrogen, 10687010)” for “10131-027)”
as §4
as §5, with “hAMYR3/CRE-Luc” for “hCTR/CRE-Luc”

Row | SMILES | EC50 [1] [pM] | EC50 [2] [pM]
1 | CC[C@H](C)[C@H](NC(=O)[C@H](C)NC(=O)CNC(=O)[C@H](Cc1ccccc1)NC(=O)[C@@H]1CCCN1C(=O)[C@H](CC(=O)O)NC(=O)[C@H](CO)NC(=O)[C@H](CO)NC(=O)[C@H](Cc1c[nH]cn1)NC(=O)[C@H](Cc1c[nH]cn1)NC(=O)[C@H](CC(C)C)NC(=O)[C@H](Cc1ccccc1)NC(=O)[C@H](CCC(=O)O)NC(=O)[C@H](C)NC(=O)[C@H](CC(C)C)NC(=O)[C@H](CCCNC(=N)N)NC(=O)[C@H](CCC(N)=O)NC(=O)[C@@H](NC(=O)[C@H](CCC(N)=O)NC(=O)[C@H](C)NC(=O)[C@@H](NC(=O)[C@H](CO)NC(=O)[C@H](CC(C)C)NC(=O)[C@H](Cc1c[nH]cn1)NC(=O)[C@H](CO)NC(=O)[C@H](C)NC(=O)CC[C@H](NC(=O)CC[C@H](NC(=O)CCCCCCCCCCCCCCCCC(=O)O)C(=O)O)C(=O)O)[C@@H](C)O)[C@@H](C)O)C(=O)N1CCC[C@H]1C(=O)N[C@@H](CO)C(=O)N[C@@H](CO)C(=O)N[C@H](C(=O)N[C@@H](CC(=O)O)C(=O)N[C@H](C(=O)NCC(=O)N1CCC[C@H]1C(=O)N[C@@H](CC(=O)O)C(=O)N[C@H](C(=O)N1CCC[C@H]1C(N)=O)[C@@H](C)O)C(C)C)[C@@H](C)O [Compound 9, N^1-[(4S)-4-carboxy-4-[[(4S)-4-carboxy-4-(17-carboxyheptadecanoylamino)butanoyl]amino]butanoyl]-[Ala1,Ser2,His3,Leu4,Ser5,Ala7,Gln8,Glu14,His17,Asp21,Pro22,Pro27,Asp31,Pro34,Asp35,Pro37]-human amylin] ({C18 diacid-γGlu-γGlu}-ASHLSTAQTQRLAEFLHHSSDPFGAIPSSTDVGPDTP-NH2) | 1.68 | 2.18
2 | CC[C@H](C)[C@H](NC(=O)[C@H](CCCCNC(=O)CC[C@H](NC(=O)CCCCCCCCCCCCCCCCC(=O)O)C(=O)O)NC(=O)CNC(=O)[C@H](Cc1ccccc1)NC(=O)[C@@H]1CCCN1C(=O)[C@H](CC(=O)O)NC(=O)[C@H](CO)NC(=O)[C@H](CO)NC(=O)[C@H](Cc1c[nH]cn1)NC(=O)[C@H](Cc1c[nH]cn1)NC(=O)[C@H](CC(C)C)NC(=O)[C@H](Cc1ccccc1)NC(=O)[C@H](CCC(=O)O)NC(=O)[C@H](C)NC(=O)[C@H](CC(C)C)NC(=O)[C@H](CCCNC(=N)N)NC(=O)[C@H](C)NC(=O)[C@@H](NC(=O)[C@H](CCC(N)=O)NC(=O)[C@H](C)NC(=O)[C@@H](NC(=O)[C@H](CO)NC(=O)[C@H](CC(C)C)NC(=O)[C@H](Cc1c[nH]cn1)NC(=O)[C@H](CO)NC(=O)[C@H](C)NC(C)=O)[C@@H](C)O)[C@@H](C)O)C(=O)N1CCC[C@H]1C(=O)N[C@@H](CO)C(=O)N[C@@H](CO)C(=O)N[C@H](C(=O)N[C@@H](CC(=O)O)C(=O)N[C@H](C(=O)NCC(=O)N1CCC[C@H]1C(=O)N[C@@H](CC(=O)O)C(=O)N[C@H](C(=O)N1CCC[C@H]1C(N)=O)[C@@H](C)O)C(C)C)[C@@H](C)O [Compound 40, N^1-acetyl,N{Epsilon-25}-[(4S)-4-carboxy-4-(17-carboxyheptadecanoylamino)butanoyl]-[Ala1,Ser2,His3,Leu4,Ser5,Ala7,Gln8,Ala10,Glu14,His17,Asp21,Pro22,Lys25,Pro27,Asp31,Pro34,Asp35,Pro37]-human amylin] (Ac-ASHLSTAQTARLAEFLHHSSDPFGK([γGlu-C18 diacid])IPSSTDVGPDTP-NH2) | 1.29 | 1.38
3 | CC[C@H](C)[C@H](NC(=O)[C@@H]1CCCN1C(=O)CNC(=O)[C@H](Cc1ccccc1)NC(=O)[C@H](CC(N)=O)NC(=O)[C@H](CC(=O)O)NC(=O)[C@H](CO)NC(=O)[C@H](CO)NC(=O)[C@H](Cc1c[nH]cn1)NC(=O)[C@H](Cc1c[nH]cn1)NC(=O)[C@H](CC(C)C)NC(=O)[C@H](Cc1ccccc1)NC(=O)[C@H](CCC(=O)O)NC(=O)[C@H](C)NC(=O)[C@H](CC(C)C)NC(=O)[C@H](CCCNC(=N)N)NC(=O)[C@H](C)NC(=O)[C@@H](NC(=O)[C@H](CCC(N)=O)NC(=O)[C@H](C)NC(=O)[C@@H](NC(=O)[C@H](CO)NC(=O)[C@H](CC(C)C)NC(=O)[C@H](Cc1c[nH]cn1)NC(=O)[C@H](CO)NC(=O)[C@H](C)NC(=O)CC[C@H](NC(=O)CCCCCCCCCCCCCCCCC(=O)O)C(=O)O)[C@@H](C)O)[C@@H](C)O)C(=O)N[C@@H](CC(C)C)C(=O)N1CCC[C@H]1C(=O)N1CCC[C@H]1C(=O)N[C@H](C(=O)N[C@@H](CC(=O)O)C(=O)N[C@H](C(=O)NCC(=O)N[C@@H](CO)C(=O)N[C@@H](CC(N)=O)C(=O)N[C@H](C(=O)N[C@@H](Cc1ccc(O)cc1)C(N)=O)[C@@H](C)O)C(C)C)[C@@H](C)O [Compound 38, N^1-[(4S)-4-carboxy-4-(17-carboxyheptadecanoylamino)butanoyl]-[Ala1,Ser2,His3,Leu4,Ser5,Ala7,Gln8,Ala10,Glu14,His17,Asp21,Pro25,Pro28,Pro29,Asp31]-human amylin] ({C18 diacid-γGlu}-ASHLSTAQTARLAEFLHHSSDNFGPILPPTDVGSNTY-NH2) | 3.15 | 1.97
